Data from patent US11433053B2, “LSD1 inhibitor and preparation method and application thereof” (CSPC ZHONGQI PHARMACEUTICAL TECHNOLOGY (SHIJIAZHUANG) CO., …, priority 2017, dated 2022).

What was measured:
[1] = target: human LSD1 (Homo sapiens (Human), UniProt O60341); test: Evaluation of enzyme activity: LSD1 fluorescence coupling enzyme assay (HRP/Amplex Red); format: biochemical; conditions: human LSD1, histone H3(1-21)K4me2 peptide 10 μM, 30 min pre-incubation
Protocol: The purpose of this test is to test the in vitro inhibitory activities of the compounds against LSD1. The enzyme used in this experiment was human LSD1, and the standard substrate was histone H3(1-21)K4me2 peptide (10 μM). HCI-2509 (SP2509) was used as reference compound, and the fluorescence coupling enzyme assay was employed. The production of FAD-dependent H2O2 as a result of demethylase activity of LSD1 was measured by coupling with HRP and Amplex Red. Compounds as well as control compound HCl-2509 were tested in 10-dose IC50 mode with a 3-fold serial dilution in duplicate starting at 10 μm. All compounds were pre-incubated 30 mins with enzyme before added substrate to start reaction. Fluorescence measurement: Ex/Em=535/590 by EnVision.
The test compound's inhibitory activities against LSD11 was classified as: + for IC50≤50 nM; ++ for IC50>50 nM and ≤100 nM; +++ for IC50>100 nM and ≤500 nM, and the results are shown in Table 1.

[2] = tested on: H1417 cells; test: Cell proliferation inhibitory activity on H1417 cells (CellTiter-Glo, 10 days); format: cell-based, human; conditions: for IC50: 10 days incubation; for Emax: NCI-H1417, H1417 cells, read-out: Maximum inhibition percentage (%)
Protocol: Experimental purposes: To test the proliferation inhibitory activities of the test compounds on H1417 cells.
Experimental materials: RPMI 1640 medium, fetal bovine serum, Promega CellTiter-Glo reagent. The H1417 cell line purchased from ATCC. Envision Multi-Label Analyzer (PerkinElmer).
Experimental method: H1417 cells were seeded in a black 384-well plate, 1000 cells per well in […] of cell suspension. The test compounds were diluted 3-fold with Epmotion to the 10th concentration i.e, the compounds were diluted from 10 mmol to […], and a double duplicate well experiment was set. 198 μL medium was added to the middle plate, according to the corresponding position, 2 μL gradient diluted compounds were added to the middle plate. The mixture was mixed evenly and transferred 20 μL per well to the cell plates. The cell plates were incubated in a carbon dioxide incubator for 10 days. 25 μL of Promega CellTiter-Glo reagent per well was added to the cell plate and the mixture was incubated for 10 minutes at room temperature to stabilize the luminescence signal. Readings were performed by PerkinElmer Envision multi-label analyzer.
Data analysis: The original data was converted to the inhibition rate by the equation (Max-Ratio)/(Max-Min)*100%, and the value of IC50 can be obtained by curve fitting with four parameters. (Model 205 in XLFIT5, iDBS)
The growth inhibitory activities of the test compounds on H1417 cells were classified as + for IC50≤100 nM; ++ for IC50>100 nM and ≤500 nM; +++ for IC50>500 nM and ≤1000 nM; the highest percentage inhibition of cell viability was classified as: […]; 90%>B≥70%; 70%>C≥50%.

[3] = Homo sapiens, NCI-H1417, 240 h, H1417 cells
[4] = Homo sapiens, highest percentage inhibition of cell viability

| SMILES | IC50 [1] | IC50 [2, 3] | Emax [2, 4] | IC50 ([2]; H1417 cells) | Maximum inhibition percentage (%) ([2]; H1417 cells, highest percentage inhibition of cell viability) |
| --- | --- | --- | --- | --- | --- |
| CCNCC1(CN[C@H]2CC2c2ccccc2)CC1 (stereo partly drawn) [Example 6] | 100 to 500 nM | 500 to 1000 nM | 50 to 70% |  |  |
| c1ccc(C2C[C@@H]2NCC2(c3noc(CC4CCNCC4)n3)CC2)cc1 (stereo partly drawn) [Example 163] | 100 to 500 nM | 100 to 500 nM | 70 to 90% |  |  |
| NC1(CN[C@H]2CC2c2ccccc2)CC1 (stereo partly drawn) [Example 199] | 50 to 100 nM | 500 to 1000 nM | 70 to 90% |  |  |
| O=C(NC1CC1)c1ccc(-c2nc(C3(CN[C@H]4CC4c4ccccc4)CC3)no2)cc1 (stereo partly drawn) [Example 184] | ≤ 50 nM | 100 to 500 nM | 90 to 100% |  |  |
| O=C(C1CC1)N1CCC(c2nc(C3(CN[C@H]4CC4c4ccccc4)CC3)no2)CC1 (stereo partly drawn) [Example 208] | ≤ 50 nM | 100 to 500 nM | 70 to 90% |  |  |
| FC(F)(F)Oc1ccc(-c2nc(C3(CN[C@H]4CC4c4ccccc4)CCC3)no2)cc1 (stereo partly drawn) [Example 88] | ≤ 50 nM | 100 to 500 nM | 50 to 70% |  |  |
| O=C(N[C@H]1CC[C@@H](c2nc(C3(CN[C@@H]4C[C@H]4c4ccccc4)CC3)no2)CC1)C1CC1 [Example 117] | ≤ 50 nM | 100 to 500 nM | 70 to 90% |  |  |
| O=C(O)[C@H](Cc1c[nH]c2ccccc12)NCC1(CN[C@@H]2C[C@H]2c2ccccc2)CC1 [Example 227] | 100 to 500 nM | ≤ 100 nM | 50 to 70% |  |  |
| O=C(O)c1ccc(CN2CCC3(CC2)CC(c2nc(C4(CN[C@H]5CC5c5ccccc5)CC4)no2)C3)cc1 (stereo partly drawn) [Example 206] | 100 to 500 nM | 500 to 1000 nM | 50 to 70% |  |  |
| N#Cc1ccc(-c2nc(C3(CN[C@H]4CC4c4ccccc4)CCC3)no2)c(F)c1 (stereo partly drawn) [Example 193] | ≤ 50 nM | 100 to 500 nM | 50 to 70% |  |  |
| N#CC1(CN[C@H]2CC2c2ccccc2)CCC1 (stereo partly drawn) [Example 8] | 50 to 100 nM | 100 to 500 nM | 50 to 70% |  |  |
| c1ccc([C@@H]2C[C@H]2NCC2(c3noc([C@@H]4C[C@H]5CNC[C@H]5C4)n3)CC2)cc1 [Example 157] | 50 to 100 nM | 500 to 1000 nM | 70 to 90% |  |  |
| CN(C)[C@H]1CC[C@@H](c2nc(C3(CN[C@@H]4C[C@H]4c4ccccc4)CC3)no2)CC1 [Example 116] | ≤ 50 nM | 100 to 500 nM | 70 to 90% |  |  |
| N#Cc1ccc(-c2nc(C3(CN[C@H]4CC4c4ccccc4)CCC3)no2)cc1 (stereo partly drawn) [Example 192] | ≤ 50 nM | 100 to 500 nM | 50 to 70% |  |  |
| c1ccc(C2C[C@@H]2NCC2(c3noc(C4CC5(CCNCC5)C4)n3)CC2)cc1 (stereo partly drawn) [Example 219] | ≤ 50 nM | 500 to 1000 nM | 90 to 100% |  |  |
| NC1CCC(NCC2(CN[C@H]3CC3c3ccccc3)CC2)CC1 (stereo partly drawn) [Example 195] | ≤ 50 nM | 100 to 500 nM | 50 to 70% |  |  |
| NCC1(CN[C@H]2CC2c2ccccc2)CCC1 (stereo partly drawn) [Example 9] | ≤ 50 nM | ≤ 100 nM | 70 to 90% |  |  |
| N[C@H]1CC[C@@H](c2nc(C3(CN[C@@H]4C[C@H]4c4ccccc4)CC3)no2)C1 [Example 147] | ≤ 50 nM | 500 to 1000 nM | 90 to 100% |  |  |
| O=C(O)[C@H]1C[C@H](c2nc(C3(CN[C@@H]4C[C@H]4c4ccccc4)CC3)no2)C1 [Example 149] | 50 to 100 nM |  |  | 500 to 1000 nM | C (70%>C≥50%) |
| N#CC1(CN[C@H]2CC2c2ccccc2)CC1 (stereo partly drawn) [Example 1] | 100 to 500 nM | ≤ 100 nM | 90 to 100% |  |  |
| CC(C)Oc1ccc(-c2nc(C3(CN[C@H]4CC4c4ccccc4)CCC3)no2)cc1 (stereo partly drawn) [Example 87] | ≤ 50 nM | 100 to 500 nM | 50 to 70% |  |  |
| C[C@@H]1CN(CC2(CN[C@H]3CC3c3ccccc3)CC2)C[C@H](C)O1 (stereo partly drawn) [Example 217] | 100 to 500 nM | 500 to 1000 nM | 50 to 70% |  |  |
| NC(=O)c1ccc(-c2nc(C3(CN[C@H]4CC4c4ccccc4)CCC3)no2)cc1 (stereo partly drawn) [Example 95] | ≤ 50 nM | ≤ 100 nM | 50 to 70% |  |  |
| COc1ccc(-c2nc(C3(CN[C@H]4CC4c4ccccc4)CCC3)no2)cn1 (stereo partly drawn) [Example 129] | ≤ 50 nM | 100 to 500 nM | 50 to 70% |  |  |
| COC(=O)[C@H]1CC[C@H](c2nc(C3(CN[C@@H]4C[C@H]4c4ccccc4)CC3)no2)CC1 [Example 171] | ≤ 50 nM | 100 to 500 nM | 50 to 70% |  |  |
| c1ccc(C2C[C@@H]2NCC2(c3noc(-c4ccc5scnc5c4)n3)CCC2)cc1 (stereo partly drawn) [Example 127] | ≤ 50 nM | 100 to 500 nM | 50 to 70% |  |  |

| SMILES | IC50 [1] | IC50 [2, 3] | Emax [2, 4] | IC50 ([2]; H1417 cells) | Maximum inhibition percentage (%) ([2]; H1417 cells, highest percentage inhibition of cell viability) |
| --- | --- | --- | --- | --- | --- |
| C[C@@H]1CN(CC2(CN[C@H]3CC3c3ccccc3)CC2)C[C@H](C)N1 (stereo partly drawn) [Example 216] | 100 to 500 nM | ≤ 100 nM | 90 to 100% |  |  |
| N[C@@H]1CCC[C@@H](c2nc(C3(CN[C@@H]4C[C@H]4c4ccccc4)CC3)no2)C1 [Example 214] | 50 to 100 nM | 100 to 500 nM | 70 to 90% |  |  |
| N[C@@H](CCc1nc(C2(CN[C@@H]3C[C@H]3c3ccccc3)CC2)no1)C(=O)O [Example 153] | 100 to 500 nM | 500 to 1000 nM | 90 to 100% |  |  |
| c1ccc(C2C[C@@H]2NCC2(CN3CC4CNCC4C3)CC2)cc1 (stereo partly drawn) [Example 207] | ≤ 50 nM | 500 to 1000 nM | 50 to 70% |  |  |
| c1ccc(C2C[C@@H]2NCC2(c3noc(C4CCc5nc[nH]c5C4)n3)CC2)cc1 (stereo partly drawn) [Example 161] | ≤ 50 nM | 100 to 500 nM | 70 to 90% |  |  |
| c1ccc(C2C[C@@H]2NCC2(CN[C@@H]3CC3c3ccccc3)CC2)cc1 (stereo partly drawn) [Example 198] | ≤ 50 nM | 100 to 500 nM | 50 to 70% |  |  |
| O=C(O)[C@H]1CC[C@@H](c2nc(C3(CN[C@H]4CC4c4ccccc4)CC3)no2)C1 (stereo partly drawn) [Example 174] | 100 to 500 nM | 500 to 1000 nM | 50 to 70% |  |  |
| c1ccc([C@@H]2C[C@H]2NCC2(c3noc(C4CCC5(CC4)CNC5)n3)CC2)cc1 [Example 158] | ≤ 50 nM | 500 to 1000 nM | 90 to 100% |  |  |
| N#Cc1ccc2c(c1)CN(CC1(CN[C@H]3CC3c3ccccc3)CC1)C2 (stereo partly drawn) [Example 100] | ≤ 50 nM | 100 to 500 nM | 50 to 70% |  |  |
| NC1CCN(c2nc(C3(CN[C@@H]4C[C@H]4c4ccccc4)CC3)no2)CC1 [Example 159] | 50 to 100 nM | 100 to 500 nM | 90 to 100% |  |  |
| O=C(O)c1ccc(C(=O)N2CCC(c3nc(C4(CN[C@H]5C[C@@H]5c5ccccc5)CC4)no3)CC2)cc1 [Example 107] | 100 to 500 nM |  |  |  |  |
| FC(F)(F)c1ccc(CNCC2(CN[C@H]3C[C@@H]3c3ccccc3)CC2)cn1 [Example 15] | 50 to 100 nM |  |  |  |  |
| FC1CC(CN[C@H]2CC2c2ccccc2)(c2cccnc2)C1 (stereo partly drawn) [Example 85] | ≤ 50 nM |  |  |  |  |
| Clc1ccc2oc(C3(CN[C@H]4C[C@@H]4c4ccccc4)CC3)nc2c1 [Example 47] | 50 to 100 nM |  |  |  |  |
| O=C(O)c1ccc(CN2CCC(c3nc(C4(CN[C@H]5C[C@@H]5c5ccccc5)CC4)no3)C2)cc1 (stereo partly drawn) [Example 215] | 100 to 500 nM |  |  |  |  |
| COc1ccc2nc(-c3nc(C4(CN[C@H]5CC5c5ccccc5)CCC4)no3)sc2c1 (stereo partly drawn) [Example 94] | ≤ 50 nM |  |  |  |  |
| c1ccc(C2C[C@@H]2NCC2(c3noc(-c4ccc(-n5cnnc5)cc4)n3)CCC2)cc1 (stereo partly drawn) [Example 136] | ≤ 50 nM |  |  |  |  |
| c1ccc(C2C[C@@H]2NCC2(c3noc(-c4ccccn4)n3)CCC2)cc1 (stereo partly drawn) [Example 125] | ≤ 50 nM |  |  |  |  |
| Fc1cc(F)c(-c2nc(C3(CN[C@H]4CC4c4ccccc4)CCC3)no2)c(F)c1 (stereo partly drawn) [Example 191] | ≤ 50 nM |  |  |  |  |
| CC(C)Oc1ccc(-c2nc(C3(CN[C@H]4CC4c4ccccc4)CCC3)no2)cc1C#N (stereo partly drawn) [Example 189] | ≤ 50 nM |  |  |  |  |
| COc1ccccc1-c1nc(C2(CN[C@H]3CC3c3ccccc3)CCC2)no1 (stereo partly drawn) [Example 90] | ≤ 50 nM |  |  |  |  |
| C/C(=N\NC(=O)c1cccc(S(=O)(=O)N2CCOCC2)c1)c1cc(Cl)ccc1O [HCI-2509, reference compound] | ≤ 50 nM |  |  |  |  |
| O=C(O)c1ccc(-c2nc(C3(CN[C@H]4CC4c4ccccc4)CCC3)no2)cc1 (stereo partly drawn) [Example 188] | ≤ 50 nM |  |  |  |  |
| CN1CCC(c2nc(C3(CN[C@H]4C[C@@H]4c4ccccc4)CC3)no2)CC1=O (stereo partly drawn) [Example 218] | 100 to 500 nM |  |  |  |  |
| FC(F)(F)c1cc(-c2nc(C3(CN[C@H]4CC4c4ccccc4)CCC3)no2)ccn1 (stereo partly drawn) [Example 131] | ≤ 50 nM |  |  |  |  |
